Laboratory results from patent US5789439A, “Pharmaceutical use of forskolin derivatives” (Nippon Kayaku Kabushiki Kaisha, priority 1990, dated 1998).
Where a name gives a salt, the structure may show the parent alone.

Assays:
ADP-induced aggregation = ADP-induced aggregation after intravenous administration to healthy adults; format: in vivo, healthy adults (human); conditions: i.v. 0.8 μg/kg/min for one hour, mean of four subjects
Method: (§1) A freeze-dried preparation comprising NKH-477 was dissolved in a physiological saline and administered intravenously to four healthy adults at a rate of 0.8 μg/kg/min for one hour. The degrees of ADP-induced aggregation, epinephrine-induced aggregation and collagen-induced aggregation upon end of administration were measured and compared with those before administration (each figure is the average of measurements on the four subjects).

[1] = test system: total peripheral vascular resistance; assay: Effect on peripheral vascular resistance in human; format: in vivo; conditions: i.v. 0.4 μg/kg/min, 40 minutes from start; four healthy adults; saline 1.7%
Method: (3) Effect on peripheral vascular resistance in human was examined.
A freeze-dried preparation comprising NKH-477 was dissolved in a physiological saline and continuously administered intravenously to four healthy adults at a rate of 0.4 μg/kg/min for one hour.
The rate of reduction of total peripheral vascular resistance after 40 minutes from the start of administration was determined for each subject from mean blood pressure and cardiac output calculated from Ultrasonic cardiography (UCG).

[2] = test system: epinephrine-induced aggregation; assay: Epinephrine-induced aggregation after intravenous administration to healthy adults; format: in vivo, healthy adults (human); conditions: i.v. 0.8 μg/kg/min for one hour, mean of four subjects
Method: as §1

canine basilar artery = assay: Spasmolytic effect on KCl-induced contraction, canine basilar artery ring; conditions: for Inhibition rate, Basilar artery: 35 mM KCl, papaverine 10^-4 M = 100%, mean ± SE, n = 3
Method: (§2) The canine coronary and basilar arteries were extirpated under anesthesia with pentobarbital to prepare the 3 mm wide ring preparation. Each preparation was suspended in a 10-ml organ bath filled with a Krebs-Henseleit solution by applying a static tension of 1.5 g (for the coronary artery) and 1.0 g (for the basilar artery). The nutrient solution was maintained at 37° C. and aerated with a 95% 02 /5% CO2 gas. The isometric mascular tension was measured with an FD pickup (TB-611T mfd. by Nihon Kohden K. K.) and recorded on a recorder (TI-104 mfd. by Tokai IRIKA K. K.).
(§3) After about 2 hours of equilibrium time, contraction was induced with 30 mM of KCl (for coronary artery) and 35 mM of KCl (for basilar artery), and after contraction was stabilized, NKH-477 was administered cumulatively. The spasmolytic effect was expressed as percentages of the inhibition, with the maximal inhibition obtained with papaverine hydrochloride (10^-4 M) being supposed to have shown 100% inhibition.

[3] = test system: whole-stratum skin cut-off model (skin ulcer); assay: Remedial effect for skin ulcer, whole-stratum skin cut-off model in rats; format: in vivo, male Wister rats; conditions: for Lesion reduction rate in whole-stratum skin cut-off model: 1 ml of 1 mg/ml applied daily, mean, n = 2
Method: The remedial effect of NKH-477 for skin ulcer was ascertained by the following test.
The abdominal region of each of the test animals--male Wister rats (10 weeks old and weighing 350-390 g) divided into groups of 2--was […] and a piece of skin of about 3 cm in diameter was cut off from said abdominal region of each test rat under anesthesia with pentobarbital (40 mg/kg, i.p.) to prepare a whole-stratum skin cut-off model, and it was used as a skin ulcer model. NKH-477 was used as the test compound (specimen) while a physiological saline was used as control. The specimen was dissolved in a physiological saline (1 mg/ml), and 1 ml of the solution was applied directly to the affected region every day, the treated part being covered with gauze fixed in position. The areas of lesion after the lapse of 1 day, 2 days, 3 days and 5 days from start of application of the specimen solution were measured by a digitizer to determine the lesion reduction rate, from which the skin ulcer curative effect of the test compound was evaluated.

canine coronary artery = assay: Spasmolytic effect on KCl-induced contraction, canine coronary artery ring; conditions: for Inhibition rate, Coronary artery: 30 mM KCl, papaverine 10^-4 M = 100%, mean ± SE, n = 6
Method: as §2, §3

[4] = test system: ADP-induced aggregation of rabbit blood thrombocyte; assay: ADP-induced platelet aggregation inhibition, rabbit platelet rich plasma; format: cell-based; conditions: Oryctolagus cuniculus, rabbit PRP, ADP 3×10^-6 M, mean, n = 5, read-out: Platelet aggregation inhibitory action (IC50), ADP-induced aggregation
Method: The platelet aggregation inhibitory action of NKH-477 was examined on collagen-induced aggregation and ADP-induced aggregation of rabbit blood thrombocyte. The male Japanese white rabbits (body weight: 2.4-2.8 kg, procured from Tokyo Experimental Animals Co., Ltd.) were divided into groups of 5. The rabbits were etherized and blood was collected from the carotid artery of each rabbit. A 3.8% sodium citrate solution (final concentration: 0.38%) was added to a portion of blood collected from each group of rabbits to obtain platelet rich plasma (PRP). The remaining portion of blood was centrifuged at 3,000 r.p.m. for 15 minutes to obtain platelet poor plasma (PPP). First, permeability of PRP and PPP was determined by using an aggregometer (RMA-31 mfd. by Rika Denki Kogyo K. K.) and set at 0% and 100%, respectively. Separately from the above operation, 250 μl of PRP was placed in a cuvette and after preliminary heating at 37° C. for 2 minutes, 20 μl of specimen was added and incubated under stirring for 2 minutes. Then 10 μl of ADP (Sigma, final conc.: 3×10^-6 M) or collagen (Hormon-Chemie, final conc.: 10 μg/ml) was added and the transmission rate was measured. The maximum transmission rate observed in this operation was termed as the maximum aggregation rate. Recording in this operation was conducted on an ink-written recorder (B-381L mfd. by Rika Denki Kogyo K. K.). […]

[5] = test system: collagen-induced aggregation; assay: Collagen-induced aggregation after intravenous administration to healthy adults; format: in vivo, healthy adults (human); conditions: i.v. 0.8 μg/kg/min for one hour, mean of four subjects
Method: as §1

[6] = test system: collagen-induced aggregation of rabbit blood thrombocyte; assay: Collagen-induced platelet aggregation inhibition, rabbit platelet rich plasma; format: cell-based
Method: The platelet aggregation inhibitory action of NKH-477 was examined on collagen-induced aggregation and ADP-induced aggregation of rabbit blood thrombocyte. The male Japanese white rabbits (body weight: 2.4-2.8 kg, procured from Tokyo Experimental Animals Co., Ltd.) were divided into groups of 5. The rabbits were etherized and blood was collected from the carotid artery of each rabbit. A 3.8% sodium citrate solution (final concentration: 0.38%) was added to a portion of blood collected from each group of rabbits to obtain platelet rich plasma (PRP). The remaining portion of blood was centrifuged at 3,000 r.p.m. for 15 minutes to obtain platelet poor plasma (PPP). First, permeability of PRP and PPP was determined by using an aggregometer (RMA-31 mfd. by Rika Denki Kogyo K. K.) and set at 0% and 100%, respectively. Separately from the above operation, 250 μl of PRP was placed in a cuvette and after preliminary heating at 37° C. for 2 minutes, 20 μl of specimen was added and incubated under stirring for 2 minutes. Then 10 μl of ADP (Sigma, final conc.: 3×10^-6 M) or collagen (Hormon-Chemie, final conc.: 10 μg/ml) was added and the transmission rate was measured. The maximum transmission rate observed in this operation was termed as the maximum aggregation rate. Recording in this operation was conducted on an ink-written recorder (B-381L mfd. by Rika Denki Kogyo K. K.). NKH-477 was dissolved in a physiological saline to make concentrations of 10^-8 to 10^-5 M. Forskolin dissolved in ethanol was used as control.

C=C[C@@]1(C)CC(=O)[C@]2(O)[C@@]3(C)[C@@H](O)CCC(C)(C)[C@@H]3[C@H](OC(=O)CCN(C)C)[C@H](OC(C)=O)[C@@]2(C)O1 [NKH-477, 6-(3-dimethylaminopropionyl)forskolin hydrochloride]
ADP-induced aggregation upon end of administration (ADP-induced aggregation; before administration 68.5%): 57.5% | Inhibition rate, ADP-induced aggregation (ADP-induced aggregation): 21.7% | average reduction rate of total peripheral vascular resistance [1]: 19.7% | Epinephrin-induced aggregation upon end of administration ([2]; before administration 47.0%): 31.8% | Inhibition rate, Epinephrin-induced aggregation [2]: 39.6% | IC50 (canine basilar artery; Canis lupus familiaris, KCl-induced contraction, n=3): 102 nM | inhibitory action against KCl-induced contraction in the basilar artery (canine basilar artery; Table 3, in words): concentration-dependent inhibitory action | Inhibition rate, Basilar artery (canine basilar artery; line 1 of 5): 3.8 ± 2.0% | Inhibition rate, Basilar artery (canine basilar artery; line 2 of 5): 22.1 ± 3.3% | Inhibition rate, Basilar artery (canine basilar artery; line 3 of 5): 52.0 ± 5.3% | Inhibition rate, Basilar artery (canine basilar artery; line 4 of 5): 78.3 ± 1.2% | Inhibition rate, Basilar artery (canine basilar artery; line 5 of 5): 89.2 ± 0.6% | Lesion reduction rate in whole-stratum skin cut-off model ([3]; 1 day elapsed, control 26.4): 31.7% | Lesion reduction rate in whole-stratum skin cut-off model ([3]; 2 days elapsed, control 36.9): 50.8% | Lesion reduction rate in whole-stratum skin cut-off model ([3]; 3 days elapsed, control 45.5): 56.4% | Lesion reduction rate in whole-stratum skin cut-off model ([3]; 5 days elapsed, control 66.8): 79.1% | curing of skin ulcer ([3]; as compared with the control): curing of skin ulcer is promoted | IC50 (canine coronary artery; Canis lupus familiaris, KCl-induced contraction, n=6): 67.3 nM | inhibitory action against KCl-induced contraction in the coronary artery (canine coronary artery; Table 3, in words): concentration-dependent inhibitory action | Inhibition rate, Coronary artery (canine coronary artery; line 1 of 5, printed 10^-9 M): 6.1 ± 1.6% | Inhibition rate, Coronary artery (canine coronary artery; line 2 of 5, printed 10^-9 M): 23.3 ± 3.2% | Inhibition rate, Coronary artery (canine coronary artery; line 3 of 5, printed 10^-9 M): 58.8 ± 3.9% | Inhibition rate, Coronary artery (canine coronary artery; line 4 of 5, printed 10^-9 M): 86.7 ± 1.5% | Inhibition rate, Coronary artery (canine coronary artery; line 5 of 5, printed 10^-9 M): 94.5 ± 1.3% | IC50 [4]: 234 nM | Collagen-induced aggregation upon end of administration ([5]; before administration 70.3%): 45.8% | Inhibition rate, Collagen-induced aggregation [5]: 38.7% | IC50 ([6]; Oryctolagus cuniculus, Platelet, rabbit PRP, collagen 10 μg/ml, mean, n = 5, read-out: Platelet aggregation inhibitory action (IC50), Collagen-induced aggregation): 302 nM | platelet aggregation inhibitory action relative to forskolin ([6]; from Table 1-1 (collagen- and ADP-induced), vs forskolin): over 10 times
